Measurements taken from patent US10349662B2, “Insecticidal compositions and methods of using the same” (priority 2011, dated 2019).
Converted amounts (≈) assume the structure as drawn. “And” between values parts separate entries of the source, which are not always exact repeats. Identical values can stand only once. Like-named read-outs stand apart in the source and are kept apart here.

Columns and labels:
Aedes aegypti mosquitoes = assay: Topical bioassay on adult female Aedes aegypti mosquitoes (knockdown 1 h, mortality 24 h; Colby calculation for combinations); type: in vivo; conditions: for mortality at 0.0005 µg/mosquito: read-out: % MORTALITY AFTER 24 HRS, 0.0005 μg/mosquito
Source text: Components of a composition can have a synergistic or additive effect on insecticidal activity. Components have an additive effect when the effect of the combination is equal to the sum of the effects of each individual component. In contrast, components have a synergistic effect when the effect of the combination exceeds the sum of the effects of the components when applied individually. The effect (E) of a combination of two compounds may be calculated using the Colby formula (1) (S. R. Colby, “Calculating Synergistic and Antagonistic Responses of Herbicide Combinations”, Weeds 1967, 15, 20-22):
If the actual insecticidal kill rate is the calculated value (E), then the action of the combination is additive. If the actual insecticidal kill rate exceeds the calculated value (E), then the action of the combination is super-additive, that is, a synergistic effect is present. If the insecticidal kill rate is lower than the calculated value (E), then the action of the combination is considered antagonistic.
Adult female Aedes aegypti mosquitoes were segregated in 18″×18″ screen cages based on date of eclosion, therefore the exact age of the mosquitoes were known for bioassays.
Ten female mosquitoes, aged four to six days after eclosion, were aspirated out of their respective cage and into a small glass jar. The mosquitoes were then anesthetized with CO2 gas for 30 seconds. After the adults were anesthetized, they were quickly placed on a plastic platform for treatment application. Treatments were serially diluted (using a BrandTech Scientific Transferpette S pipette (100-1000 μL), labeled centrifuge tubes, and a vortex mixer) from stocks of insecticides using reagent grade acetone as the diluent to concentrations as indicated for each treatment solution. A treatment solution may contain additional ingredients as indicated for each study.
Using a Hamilton PB00-1 Repeating Dispenser with a Hamilton 25 Microliter Syringe, 0.5 μL of each treatment solution was applied to the thorax of each mosquito. Immediately following the application of the treatment, the mosquitoes were gently transferred into a clean paper cup and covered with screen. The mesh screen prevented the mosquitoes from escaping and allowed the specimens to be viewed for ratings. A cotton ball soaked with 10% sucrose solution was inserted into a side hole of each cup for hydration and nourishment. Each treatment variable in the study was replicated three times using separate cups for each replication.
The untreated controls treatments were anesthetized for 30 seconds and gently transferred to the paper cups. The acetone treated control was treated exactly as described above except that the solution applied to each mosquito was undiluted acetone.
The condition of the mosquitoes in each cup was recorded at one hour and 24 hours after initial treatment. The condition classifications used were (1) alive and flying, (2) alive and unable to fly, or (3) dead. The percent mortality for each treatment was calculated by summing the mortalities of each replicate then calculating the percent dead from the total number of mosquitoes.
Where indicated, the mortality data were subjected to probit analysis using the Statistical Analysis System Version 9.1 program PROC PROBIT (SAS Institute (2003) PROC user's manual, version 9.1. SAS Institute, Cary, N.C.).

[1] = cited from earlier work

Q: For `C=C(C)[C@H]1CC=C(C)C(=O)C1` [(S)-(+)-Carvone], which “% MORTALITY AFTER 24 HRS” value (Aedes aegypti mosquitoes; 3%) is on record?
A: 13%

Q: And the “% MORTALITY AFTER 24 HRS” value (Aedes aegypti mosquitoes; single active, 3%)?
A: 7% and 17%

Q: What does the source list for `CC(C)=CC1C(C(=O)OCc2cccc(Oc3ccccc3)c2)C1(C)C` (stereo not drawn) [Sumithrin, sumithrin (d-phenothrin), reference compound]?
A: mortality at 700 pg (Aedes aegypti mosquitoes; Aedes aegypti, topical, 24 h, read-out: % MORTALITY AFTER 24 HRS, 0.0007 μg): 27%; mortality at 300 pg (Aedes aegypti mosquitoes; Aedes aegypti, topical, 24 h, read-out: % MORTALITY AFTER 24 HRS, insecticide alone, 0.0003 μg, adult, virgin, female Aedes aegypti): 27%; mortality at 700 pg (Aedes aegypti mosquitoes; Aedes aegypti, topical, 24 h, read-out: % MORTALITY AFTER 24 HRS, insecticide alone, 0.0007 μg, adult, virgin, female Aedes aegypti): 43%; mortality at 700 pg (Aedes aegypti mosquitoes; Aedes aegypti, topical, 24 h, read-out: % MORTALITY AFTER 24 HRS, single active, 0.0007 μg): 27%

Q: For `CC1=CC(=O)CC(C)(C)C1` [Isophorone, isophorone], which mortality at 3 % (Aedes aegypti mosquitoes; Aedes aegypti, topical, 24 h, read-out: % MORTALITY AFTER 24 HRS, active ingredient alone, 3%, adult, virgin, female Aedes aegypti) is on record?
A: 57%

Q: What does the source list for `C=C/C(C)=C/C/C=C(\C)CCC=C(C)C` [Farnesene Alpha]?
A: Vapor Pressure (@ 25° C.) [1]: 0.025 mmHg; Solubility (in water @ 25° C.) ([1]; in water): 0.011 µg/mL (≈ 0.0538 µM)

Q: With `C=CC(C)(O)CCC=C(C)C` (stereo not drawn) [Linalool] as the molecule, how does the “Vapor Pressure (@ 25° C.)” value [1] read?
A: 0.16 mmHg

Q: What about the “Viscosity (@ 25° C.)” value [1] of the same molecule?
A: 4.4 mPa

Q: With `CC/C=C\C/C=C\C/C=C\CCCCCCCC(=O)O` [Linolenic acid] as the molecule, how does the 1 hour knockdown (Aedes aegypti mosquitoes; 1%) read?
A: 0%

Q: What about the 1 hour knockdown (Aedes aegypti mosquitoes; 5%) of the same molecule?
A: 27%

Q: What about the 1 hour knockdown (Aedes aegypti mosquitoes; 10%) of the same molecule?
A: 40%

Q: And the 1 hour knockdown (Aedes aegypti mosquitoes; 20%)?
A: 93%

Q: And the mortality at 1 % (Aedes aegypti mosquitoes; Aedes aegypti, topical, 24 h, read-out: % MORTALITY AFTER 24 HRS, 1%)?
A: 3%

Q: What about the mortality at 5 % (Aedes aegypti mosquitoes; Aedes aegypti, topical, 24 h, read-out: % MORTALITY AFTER 24 HRS, 5%) of the same molecule?
A: 33%

Q: And the mortality at 10 % (Aedes aegypti mosquitoes; Aedes aegypti, topical, 24 h, read-out: % MORTALITY AFTER 24 HRS, 10%)?
A: 83%

Q: What about the mortality at 20 % (Aedes aegypti mosquitoes; Aedes aegypti, topical, 24 h, read-out: % MORTALITY AFTER 24 HRS, 20%) of the same molecule?
A: 93%

Q: And the mortality at 3 % (Aedes aegypti mosquitoes; Aedes aegypti, topical, 24 h, read-out: % MORTALITY AFTER 24 HRS, single active, 3%)?
A: 10%

Q: With `C=C1CCC2CC1C2(C)C` (stereo not drawn) [Pinene Beta] as the molecule, how does the “Vapor Pressure (@ 25° C.)” value [1] read?
A: 2.93 mmHg

Q: For `CC1(C)C(C=C(Cl)Cl)C1C(=O)OCc1cccc(Oc2ccccc2)c1` (stereo not drawn) [Permethrin, permethrin, reference compound], which 1 hour knockdown (Aedes aegypti mosquitoes; 0.0004 μg/mosquito) is on record?
A: 93%

Q: What about the mortality at 300 pg (Aedes aegypti mosquitoes; Aedes aegypti, topical, 24 h, read-out: % MORTALITY AFTER 24 HRS, 0.0003 μg) of the same molecule?
A: 27%

Q: What about the mortality at 0.0004 µg/mosquito (Aedes aegypti mosquitoes; Aedes aegypti, topical, 24 h, read-out: % MORTALITY AFTER 24 HRS, 0.0004 μg/mosquito) of the same molecule?
A: 70%

Q: What about the mortality at 300 pg (Aedes aegypti mosquitoes; Aedes aegypti, topical, 24 h, read-out: % MORTALITY AFTER 24 HRS, single active, 0.0003 μg) of the same molecule?
A: 37%

Q: What about the mortality at 400 pg (Aedes aegypti mosquitoes; Aedes aegypti, topical, 24 h, read-out: % MORTALITY AFTER 24 HRS, single active, 0.0004 μg) of the same molecule?
A: 47%

Q: With `C=C(C)[C@@H]1CC=C(C=O)CC1` [(S)-(−)-Perillaldehyde] as the molecule, how does the 1 hour knockdown (Aedes aegypti mosquitoes; 1%) read?
A: 3%

Q: And the “% MORTALITY AFTER 24 HRS” value (Aedes aegypti mosquitoes; 1%)?
A: 7%

Q: And the “% MORTALITY AFTER 24 HRS” value (Aedes aegypti mosquitoes; 2%)?
A: 30%

Q: And the 1 hour knockdown (Aedes aegypti mosquitoes; 5%)?
A: 93%

Q: What about the “% MORTALITY AFTER 24 HRS” value (Aedes aegypti mosquitoes; 5%) of the same molecule?
A: 93%

Q: What about the 1 hour knockdown (Aedes aegypti mosquitoes; 10%) of the same molecule?
A: 100%

Q: And the “% MORTALITY AFTER 24 HRS” value (Aedes aegypti mosquitoes; 10%)?
A: 100%

Q: What about the 1 hour knockdown (Aedes aegypti mosquitoes; 20%) of the same molecule?
A: 97%

Q: What about the “% MORTALITY AFTER 24 HRS” value (Aedes aegypti mosquitoes; 20%) of the same molecule?
A: 100%

Q: With `C=C(C)[C@H]1CC=C(C)CC1` [Limonene] as the molecule, how does the “% MORTALITY AFTER 24 HRS” value (Aedes aegypti mosquitoes; 5%) read?
A: 27%

Q: Which “% MORTALITY AFTER 24 HRS” value (Aedes aegypti mosquitoes; active ingredient alone, 3%, adult, virgin, female Aedes aegypti) does the source give for `CC(C)(C)C1=CCCCC1` [1-tert-Butyl . . .] here?
A: 30%

Q: Which 1 hour knockdown (Aedes aegypti mosquitoes; 1%) does the source give for `C=CC(C)=CCC=C(C)CCC=C(C)C` [Farnesene] here?
A: 0%

Q: And the “% MORTALITY AFTER 24 HRS” value (Aedes aegypti mosquitoes; 1%)?
A: 3%

Q: What about the 1 hour knockdown (Aedes aegypti mosquitoes; 3%) of the same molecule?
A: 3% and 0% and 7%

Q: And the “% MORTALITY AFTER 24 HRS” value (Aedes aegypti mosquitoes; 3%)?
A: 3%

Q: What about the 1 hour knockdown (Aedes aegypti mosquitoes; 5%) of the same molecule?
A: 0%

Q: And the “% MORTALITY AFTER 24 HRS” value (Aedes aegypti mosquitoes; 5%)?
A: 13%

Q: And the 1 hour knockdown (Aedes aegypti mosquitoes; 10%)?
A: 87%

Q: And the “% MORTALITY AFTER 24 HRS” value (Aedes aegypti mosquitoes; 10%)?
A: 70%

Q: And the 1 hour knockdown (Aedes aegypti mosquitoes; 20%)?
A: 100%

Q: And the “% MORTALITY AFTER 24 HRS” value (Aedes aegypti mosquitoes; 20%)?
A: 100%

Q: What about the “% MORTALITY AFTER 24 HRS” value (Aedes aegypti mosquitoes; single active, 3%) of the same molecule?
A: 7%

Q: With `CCOc1ccc(C(C)(C)COCc2cccc(Oc3ccccc3)c2)cc1` [Etofenprox, etofenprox, reference compound] as the molecule, how does the 1 hour knockdown (Aedes aegypti mosquitoes; 0.001 μg/mosquito) read?
A: 73%

Q: And the 1 hour knockdown (Aedes aegypti mosquitoes; 0.002 μg/mosquito)?
A: 83%

Q: What about the mortality at 0.0005 µg/mosquito (Aedes aegypti mosquitoes; Aedes aegypti, topical, 24 h) of the same molecule?
A: 97%

Q: And the mortality at 0.001 µg/mosquito (Aedes aegypti mosquitoes; Aedes aegypti, topical, 24 h, read-out: % MORTALITY AFTER 24 HRS, 0.001 μg/mosquito)?
A: 40%

Q: What about the mortality at 0.002 µg/mosquito (Aedes aegypti mosquitoes; Aedes aegypti, topical, 24 h, read-out: % MORTALITY AFTER 24 HRS, 0.002 μg/mosquito) of the same molecule?
A: 53%

Q: And the mortality at 1 ng (Aedes aegypti mosquitoes; Aedes aegypti, topical, 24 h, read-out: % MORTALITY AFTER 24 HRS, single active, 0.001 μg)?
A: 40%

Q: And the mortality at 2 ng (Aedes aegypti mosquitoes; Aedes aegypti, topical, 24 h, read-out: % MORTALITY AFTER 24 HRS, single active, 0.002 μg)?
A: 37%

Q: What does the source list for `CC[S+]([O-])c1c(C#N)nn(-c2c(Cl)cc(C(F)(F)F)cc2Cl)c1N` (stereo not drawn) [ethiprole, reference compound]?
A: 1 hour knockdown (Aedes aegypti mosquitoes; 0.0005 μg/mosquito): 0%; mortality at 0.0005 µg/mosquito (Aedes aegypti mosquitoes; Aedes aegypti, topical, 24 h): 97%
